Tested on: STZ induced diabetic nephropathy in rats
Test: Study 4: HCQ and its combination with Losartan, Telmisartan, Azilsartan and Ramipril, with Glimepiride control
Assay type: in vivo, Wistar rats
Details: for HDL / TC / TG / GSH / TBARS / Total protein kidney / Creatinine / Total protein / Urea: after 8th week; for Glucose Day1 / Glucose Day14 / Glucose Day28 / Glucose Day42 / Glucose Day56: blood; for GSH / TBARS / Total protein kidney: kidney homogenate; for Creatinine / Total protein / Urea: serum
Experimental: The methods described in Terri et al, Diabetes Volume, 1997, 46:1612-1618, and Takashi et al, Jpn J. Pharmacol, 1997, 75, 59-64, were followed for inducing Diabetes in rats by injecting Streptozotocin. The Efficacy of the drugs was tested in two different models, one involving comparison with diabetic control (i.e. Diabetic Rats not treated with any medication) and the other involving comparison with the anti-diabetic control group (i.e. Diabetic rats administered Glimepiride) in two separate studies.
Wistar rats of either sex weighing 150-200 g were divided randomly into 28 groups consisting of 6 animals each. Diabetes was induced in rats by single administration of streptozotocin (55 mg/kg/i.p) dissolved in 0.1 M-citrate buffer, pH 4.5. Group 1 (normal control) consisted of normal rats that neither received streptozotocin nor any test drug; Group 2 served as Diabetic control; Group 3 was diabetic rats treated with Hydroxychloroquine (35 mg/kg); Group 4 was diabetic rats treated with Hydroxychloroquine (45 mg/kg) and Group 5 was diabetic rats treated with Hydroxychloroquine (70 mg/kg); Group 6 was diabetic rats treated with Losartan (5.5 mg/kg); Group 7 was diabetic rats treated with Losartan (11 mg/kg); Group 8 was diabetic rats treated with combination of Losartan (5.5 mg/kg) and Hydroxychloroquine (45 mg/kg); Group 9 was diabetic rats treated with combination of Losartan (11 mg/kg) and Hydroxychloroquine (35 mg/kg); Group 10 was diabetic rats treated with Ramipril (0.6 mg/kg); Group 11 was diabetic rats treated with Ramipril (0.3 mg/kg); Group 12 was diabetic rats treated with combination of Ramipril (0.6 mg/kg) and Hydroxychloroquine (35 mg/kg); Group 13 was diabetic rats treated with combination of Ramipril (0.3 mg/kg) and Hydroxychloroquine (45 mg/kg); Group 14 was diabetic rats treated with combination of Ramipril (0.6 mg/kg) and Hydroxychloroquine (45 mg/kg); Group 15 was diabetic rats treated with combination of Ramipril (0.3 mg/kg) and Hydroxychloroquine (35 mg/kg); Group 16 was diabetic rats treated with Telmisartan (9.5 mg/kg); Group 17 was diabetic rats treated with Telmisartan (4.5 mg/kg); Group 18 was diabetic rats treated with combination of Telmisartan (9.5 mg/kg) and Hydroxychloroquine (35 mg/kg); Group 19 was diabetic rats treated with combination of Telmisartan (4.5 mg/kg) and Hydroxychloroquine (45 mg/kg); Group 20 was diabetic rats treated with combination of Telmisartan (9.5 mg/kg) and Hydroxychloroquine (45 mg/kg); Group 21 was diabetic rats treated with combination of Telmisartan (4.5 mg/kg) and Hydroxychloroquine (35 mg/kg); Group 22 was diabetic rats treated with Azilsartan (4.5 mg/kg); Group 23 was diabetic rats treated with Azilsartan (2.5 mg/kg); Group 24 was diabetic rats treated with combination of Azilsartan (4.5 mg/kg) and Hydroxychloroquine (35 mg/kg); Group 25 was diabetic rats treated with combination of Azilsartan (2.5 mg/kg) and Hydroxychloroquine (45 mg/kg); Group 26 was diabetic rats treated with combination of Azilsartan (4.5 mg/kg) and Hydroxychloroquine (45 mg/kg); Group 27 was diabetic rats treated with combination of Azilsartan (2.5 mg/kg) and Hydroxychloroquine (35 mg/kg); Group 28 served as Anti-Diabetic control wherein diabetic rats were treated with antidiabetic drug Glimepiride (GLM) (1 mg/kg).
The study drugs were dissolved/suspended in vehicle and administered orally once a day for eight weeks. The diabetes mellitus induced nephropathy was assessed by estimating the level of serum urea, serum creatinine and total serum protein content after completion of eighth week of study. TBARS, GSH and Total Protein were measured as markers of renal oxidative stress in Kidney Homogenate after completion of eighth week of study. Blood glucose levels were also assessed at weekly interval.

[1] = dose mg/kg: HCQ 35, LT 5.5, RM 0.3, TL 4.5, AZ 2.5, alone or combined with HCQ 35
[2] = dose mg/kg: HCQ 45, LT 11, RM 0.6, TL 9.5, AZ 4.5, alone or combined with HCQ 45

CCOC(=O)[C@H](CCc1ccccc1)N[C@@H](C)C(=O)N1[C@H](C(=O)O)C[C@@H]2CCC[C@@H]21 [Ramipril]
HDL [1]: 27.17 ± 1.47 mg/dL | TC [1]: 138.33 ± 2.94 mg/dL | TG [1]: 100.17 ± 5 mg/dL | HDL [2]: 27.33 ± 1.63 mg/dL | TC [2]: 142.17 ± 3.31 mg/dL | TG [2]: 98.5 ± 4.93 mg/dL | Glucose Day1 [1]: 281.5 ± 18.2 mg/dL | Glucose Day1 [2]: 260 ± 17.19 mg/dL | Glucose Day14 [1]: 216.17 ± 21.48 mg/dL | Glucose Day14 [2]: 203 ± 14.07 mg/dL | Glucose Day28 [1]: 174.17 ± 9.06 mg/dL | Glucose Day28 [2]: 174.33 ± 8.91 mg/dL | Glucose Day42 [1]: 158.5 ± 9.07 mg/dL | Glucose Day42 [2]: 157.67 ± 9.18 mg/dL | Glucose Day56 [1]: 145.33 ± 6.38 mg/dL | Glucose Day56 [2]: 141.67 ± 5.47 mg/dL | GSH [1]: 1.16 ± 0.62 nM/mg | TBARS [1]: 0.67 ± 0.1 nM/mg | Total protein kidney [1]: 835.33 ± 22.27 µg/mL | GSH [2]: 1.16 ± 0.59 nM/mg | TBARS [2]: 0.62 ± 0.15 nM/mg | Total protein kidney [2]: 810 ± 17.12 µg/mL | Creatinine [1]: 3.37 ± 0.32 mg/dL | Total protein [1]: 4.76 ± 0.28 g/dL | Urea [1]: 41.33 ± 1.97 mg/dL | Creatinine [2]: 3.68 ± 0.24 mg/dL | Total protein [2]: 4.77 ± 0.21 g/dL | Urea [2]: 41 ± 1.79 mg/dL

CCCc1nc2c(C)cc(-c3nc4ccccc4n3C)cc2n1Cc1ccc(-c2ccccc2C(=O)O)cc1 [Telmisartan]
HDL [1]: 26 ± 1.67 mg/dL | TC [1]: 138.67 ± 3.93 mg/dL | TG [1]: 100.33 ± 5.57 mg/dL | HDL [2]: 26.83 ± 1.47 mg/dL | TC [2]: 141.5 ± 2.88 mg/dL | TG [2]: 97.67 ± 6.09 mg/dL | Glucose Day1 [1]: 281.83 ± 12.46 mg/dL | Glucose Day1 [2]: 275.33 ± 15.45 mg/dL | Glucose Day14 [1]: 221.83 ± 12.37 mg/dL | Glucose Day14 [2]: 221.5 ± 16.02 mg/dL | Glucose Day28 [1]: 181.83 ± 5.04 mg/dL | Glucose Day28 [2]: 184.33 ± 8.31 mg/dL | Glucose Day42 [1]: 162 ± 9.21 mg/dL | Glucose Day42 [2]: 159.83 ± 7.03 mg/dL | Glucose Day56 [1]: 139 ± 7.85 mg/dL | Glucose Day56 [2]: 141 ± 7.07 mg/dL | GSH [1]: 0.86 ± 0.06 nM/mg | TBARS [1]: 0.65 ± 0.15 nM/mg | Total protein kidney [1]: 879.17 ± 29.41 µg/mL | GSH [2]: 0.96 ± 0.11 nM/mg | TBARS [2]: 0.54 ± 0.14 nM/mg | Total protein kidney [2]: 864.5 ± 25.65 µg/mL | Creatinine [1]: 3.68 ± 0.31 mg/dL | Total protein [1]: 4.93 ± 0.23 g/dL | Urea [1]: 42.67 ± 2.5 mg/dL | Creatinine [2]: 3.91 ± 0.15 mg/dL | Total protein [2]: 4.61 ± 0.18 g/dL | Urea [2]: 41.5 ± 2.35 mg/dL

CCOc1nc2cccc(C(=O)O)c2n1Cc1ccc(-c2ccccc2-c2nc(=O)o[nH]2)cc1 [Azilsartan]
HDL [1]: 27.17 ± 1.17 mg/dL | TC [1]: 142 ± 2.1 mg/dL | TG [1]: 97 ± 5.66 mg/dL | HDL [2]: 26.67 ± 1.51 mg/dL | TC [2]: 141.17 ± 2.32 mg/dL | TG [2]: 103 ± 3.9 mg/dL | Glucose Day1 [1]: 267.17 ± 12.21 mg/dL | Glucose Day1 [2]: 278.5 ± 14.22 mg/dL | Glucose Day14 [1]: 215.5 ± 14.01 mg/dL | Glucose Day14 [2]: 224.17 ± 17.93 mg/dL | Glucose Day28 [1]: 180 ± 8.00 mg/dL | Glucose Day28 [2]: 179 ± 7.13 mg/dL | Glucose Day42 [1]: 160.67 ± 6.12 mg/dL | Glucose Day42 [2]: 158.67 ± 6.77 mg/dL | Glucose Day56 [1]: 141 ± 6.924 mg/dL | Glucose Day56 [2]: 139.83 ± 4.79 mg/dL | GSH [1]: 0.86 ± 0.21 nM/mg | TBARS [1]: 0.6 ± 0.11 nM/mg | Total protein kidney [1]: 874.5 ± 21.80 µg/mL | GSH [2]: 1.26 ± 0.44 nM/mg | TBARS [2]: 0.58 ± 0.14 nM/mg | Total protein kidney [2]: 837.5 ± 20.15 µg/mL | Creatinine [1]: 3.61 ± 0.16 mg/dL | Total protein [1]: 4.76 ± 0.15 g/dL | Urea [1]: 40.83 ± 2.64 mg/dL | Creatinine [2]: 3.44 ± 0.28 mg/dL | Total protein [2]: 4.99 ± 0.25 g/dL | Urea [2]: 41 ± 3.58 mg/dL

From US20160030415A1, “TREATMENT AND PROPHYLAXIS OF KIDNEY DISEASES” (priority 2013, published 2016)
